The source of these data is patent US9481687B2, “IRAK inhibitors and uses thereof” (Nimbus Iris, Inc., priority 2012, dated 2016).

The test system of assay [1] is THP-1 cells. As to the kind of experiment: LPS-induced cytokine production assay, TNFα. The format is cell-based. The following applies: Homo sapiens, 300 ng/mL LPS, 5 hours, read-out: TNF (5 h). The procedure: (§1) Provided compounds were also assayed in an LPS (Lipopolysacharide) or R848 (TLR-7 agonist) induced cytokine (e.g. TNFα and IL8) production assay in THP-1 cells, human peripheral blood mononuclear cells (hPBMC), and whole blood. The exemplary protocol for this assay in THP-1 cells was as follows below.
(§2) THP-1 cells from ATCC (TIB-202) were cultured in RPMI Medium 1640 (Invitrogen, Cat No. A10491-01), 10% fetal bovine serum (Invitrogen, Cat No. 10099141, Lot No. 8172882) containing 100 U/mL Penicillin, 100 μg/mL streptomycin (Invitrogen, Cat No. 15140-122), and 50 uM 2-Mercaptoethanol (Invitrogen, Cat No. 21985023). LPS-EK ultra pure (Invivogen, Cat No. tlrl-peklps) was used to induce IL8 and TNFα production, that is detected in the cell culture supernatant by IL8 HTRF kit (Cisbio, Cat No. 62IL8PEB) and TNFα HTRF kit (Cisbio, Cat No. 62TNFPEB), as per manufacturer instructions. Cells were cultured in 96 well assay plates at 100,000 cells per well, and compounds diluted in final 0.3% DMSO were pre-incubated with cells for 1 hour prior to stimulation with 300 ng/mL LPS. Cytokine production in cell supernatant was measured at 5 hours for TNFα and IL8 production, and for 16 hours for IL8 production and assessment of cell viability.

Assay [2] addresses T1, IRAK4 (Homo sapiens, UniProt Q9NWZ3).
T1 construct: purchased CARNA Bioscience 09-145
T1 sequence (Q9NWZ3 1-460): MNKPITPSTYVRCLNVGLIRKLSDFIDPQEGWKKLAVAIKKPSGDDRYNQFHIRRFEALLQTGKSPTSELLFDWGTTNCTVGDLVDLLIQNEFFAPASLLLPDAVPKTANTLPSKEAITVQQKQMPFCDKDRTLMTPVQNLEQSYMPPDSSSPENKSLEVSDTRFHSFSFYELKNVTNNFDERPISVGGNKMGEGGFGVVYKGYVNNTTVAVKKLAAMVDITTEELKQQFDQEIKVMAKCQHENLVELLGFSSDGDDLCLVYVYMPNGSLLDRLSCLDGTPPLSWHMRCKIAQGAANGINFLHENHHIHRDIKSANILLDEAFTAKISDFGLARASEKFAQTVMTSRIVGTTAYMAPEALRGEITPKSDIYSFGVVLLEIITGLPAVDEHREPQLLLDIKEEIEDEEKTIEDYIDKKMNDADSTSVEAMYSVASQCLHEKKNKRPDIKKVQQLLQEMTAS
As to the kind of experiment: IRAK-4 activity inhibition assay (Caliper). The class given is biochemical. The following applies: 3.5 nM IRAK4, 37 μM ATP, 1.5 μM Peptide 8. The procedure: A 1× kinase base buffer was prepared from 50 mM HEPES, pH 7.5 and 0.0015% Brij-35. A stop buffer was prepared from 100 mM HEPES, pH 7.5, 0.015% Brij-35, 0.2% Coating Reagent #3, and 50 mM EDTA.
Test compound was diluted to 50× of the final desired highest inhibitor concentration in reaction by 100% DMSO. 100 ul of this compound dilution was transferred to a well in a 96-well plate.
Test compound was serially diluted by transferring 30 μl to 60 μl of 100% DMSO in the next well and so forth for a total of 10 concentrations. 100 μl of 100% DMSO was added to two empty wells for no compound control and no enzyme control in the same 96-well plate.
A new 96-well plate was marked as intermediate plate. 5 μl of compound serial dilution was transferred from source plate to the corresponding wells of the intermediate plate. 45 μl of 1× kinase base buffer (KB buffer) was added to each well of the intermediate plate. The intermediate plate was placed for 10 min on a shaker.
5 μl of each well was transferred from the 96-well intermediate plate to a 384-well plate in duplicates. For example, A1 of the 96-well plate is transferred to A1 and A2 of the 384-well plate. A2 of the 96-well plate is transferred to A3 and A4 of the 384-well plate, and so on.
IRAK4 and DTT in 1× kinase base buffer was added. The 2.5× enzyme mix contained 8.8 nM IRAK4 and 5 mM DTT.
Peptide 8, ATP, MgCl2 and MnCl2 were added in the 1× kinase base buffer. The 2.5× peptide mix contained 3.75 μM peptide 8, 92.5 μM ATP, 12.5 mM MgCl2 and 2.5 mM MnCl2.
Assay plate already contained 5 μl of compound in 10% DMSO. Added 10 μl of 2.5× enzyme solution to each well of the 384-well assay plate, except no enzyme control wells. The final concentration of IRAK4 in reaction was 3.5 nM. Added 10 μl of 1× kinase base buffer to no enzyme control wells in the assay plate. Incubated at room temperature for 10 min.
Added 10 μl of 2.5× peptide solution to each well of the 384-well assay plate. The final concentration of Peptide 8 and ATP was 1.5 μM and 37 μM, respectively. Incubated at 28° C. for 40 minutes. Added 25 μl of stop buffer to stop reaction. Collected data on Caliper.
Copied conversion % data from Caliper program. Converted conversion % values to percent inhibition values. Percent inhibition=(max−conversion %)/(max−min)*100, where “max” means the conversion % of DMSO control and “min” means the conversion % of no enzyme control.

The subject of assay [3] is THP-1 cells. As to the kind of experiment: LPS-induced cytokine production assay, IL8. The class given is cell-based. The following applies: Homo sapiens, 300 ng/mL LPS, 16 hours, read-out: IL-8 (16 h). As to the method: as §1, §2

For the compound `CN(C)[C@H]1CC[C@H](Nc2ncnc3sc4ccc(C(N)=O)cc4c23)CC1` [I-6, 4-(((1r,4r)-4-(dimethylamino)cyclohexyl)amino)benzo[4,5]thieno[2,3-d]pyrimidine-6-carboxamide], the IC50 is not below 1000 nM in assay [1], not above 100 nM in assay [2] and not above 1000 nM in assay [3].
